We go through one compound from patent publication US4286089A, “7-Acyl-3-(substituted tetrazolyl thiomethyl)cephalosporins” (SmithKline Corporation, priority 1974, dated 1981).

This assay relates to E. coli 12140. Put plainly: In vivo mouse protection, E. coli 12140. The settings on record: Escherichia coli, po, E. coli 12140, p.o. The source says:
Compound names corresponding to numbers are given in the experimental section. For comparative purposes, data for cephamandole, which is 7-mandelamido-3-(1-methyltetrazol-5-ylthiomethyl)-3-cephem-4-carboxylic acid, is also given in Tables 1 and 2.

Structures are written as SMILES.

In the case of `N[C@@H](C(=O)NC1C(=O)N2C(C(=O)O)=C(CSc3nnnn3CC(=O)O)CS[C@H]12)c1ccc(O)cc1` (stereo partly drawn) [II, 7-(D-α-Amino-4-hydroxyphenylacetamido)-3-(1-carboxymethyl-tetrazol-5-ylthiomethyl)-3-cephem-4-carboxylic acid], the ED50 – broadly, the dose that gives a 50% effect, or the effect in half of the subjects – was found to be 200 mg/kg.
